Values of other authors as cited in US10912741B2, “Prevention of liver cancer with safranal-based formulations” (United Arab Emirates University, priority 2019, dated 2021).

Tested on: HeLa cells
Conditions: reported in the background; cited from earlier work

Compound | growth of HeLa cells
CC1=C(C=O)C(C)(C)C[C@H](O[C@@H]2O[C@H](CO)[C@@H](O)[C@H](O)[C@H]2O)C1 [picrocrocin] | inhibit the growth of HeLa cells
CC(/C=C/C=C(\C)C(=O)O[C@@H]1O[C@H](CO[C@@H]2O[C@H](CO)[C@@H](O)[C@H](O)[C@H]2O)[C@@H](O)[C@H](O)[C@H]1O)=C\C=C\C=C(C)\C=C\C=C(/C)C(=O)O[C@@H]1O[C@H](CO[C@@H]2O[C@H](CO)[C@@H](O)[C@H](O)[C@H]2O)[C@@H](O)[C@H](O)[C@H]1O [crocin] | inhibit the growth of HeLa cells
